Structures are written as SMILES.

In assay [1] the target is Acetylcholinesterase (Electrophorus electricus) (UniProt O42275). Conditions: at 2 mg/mL.
Description: Inhibition of electric eel AChE at 2 mg/ml by Ellman's method
In assay [2] the target is Cholinesterase (Equus caballus) (UniProt P81908). Conditions: at 2 mg/mL.
Cholinesterase (Equus caballus), sequence (P81908 whole entry): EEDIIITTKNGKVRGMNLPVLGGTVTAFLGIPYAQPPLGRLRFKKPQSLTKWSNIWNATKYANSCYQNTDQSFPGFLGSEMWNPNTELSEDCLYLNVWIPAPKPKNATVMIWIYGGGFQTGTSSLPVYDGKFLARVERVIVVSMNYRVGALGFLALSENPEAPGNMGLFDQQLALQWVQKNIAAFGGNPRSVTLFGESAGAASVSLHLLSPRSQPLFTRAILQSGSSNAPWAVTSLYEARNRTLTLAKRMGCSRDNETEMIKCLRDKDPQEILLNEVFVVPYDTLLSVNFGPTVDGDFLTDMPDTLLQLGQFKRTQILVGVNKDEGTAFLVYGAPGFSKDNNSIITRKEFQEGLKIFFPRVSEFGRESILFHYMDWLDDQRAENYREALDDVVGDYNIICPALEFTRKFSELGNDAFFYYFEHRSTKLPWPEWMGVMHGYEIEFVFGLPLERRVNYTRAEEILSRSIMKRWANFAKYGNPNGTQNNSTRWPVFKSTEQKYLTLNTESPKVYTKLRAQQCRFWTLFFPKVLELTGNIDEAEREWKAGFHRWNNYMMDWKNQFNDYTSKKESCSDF
Description: Inhibition of horse BChE at 2 mg/ml by Ellman's method

Acetylcholinesterase (Electrophorus electricus), sequence (O42275 24-633 limits assumed): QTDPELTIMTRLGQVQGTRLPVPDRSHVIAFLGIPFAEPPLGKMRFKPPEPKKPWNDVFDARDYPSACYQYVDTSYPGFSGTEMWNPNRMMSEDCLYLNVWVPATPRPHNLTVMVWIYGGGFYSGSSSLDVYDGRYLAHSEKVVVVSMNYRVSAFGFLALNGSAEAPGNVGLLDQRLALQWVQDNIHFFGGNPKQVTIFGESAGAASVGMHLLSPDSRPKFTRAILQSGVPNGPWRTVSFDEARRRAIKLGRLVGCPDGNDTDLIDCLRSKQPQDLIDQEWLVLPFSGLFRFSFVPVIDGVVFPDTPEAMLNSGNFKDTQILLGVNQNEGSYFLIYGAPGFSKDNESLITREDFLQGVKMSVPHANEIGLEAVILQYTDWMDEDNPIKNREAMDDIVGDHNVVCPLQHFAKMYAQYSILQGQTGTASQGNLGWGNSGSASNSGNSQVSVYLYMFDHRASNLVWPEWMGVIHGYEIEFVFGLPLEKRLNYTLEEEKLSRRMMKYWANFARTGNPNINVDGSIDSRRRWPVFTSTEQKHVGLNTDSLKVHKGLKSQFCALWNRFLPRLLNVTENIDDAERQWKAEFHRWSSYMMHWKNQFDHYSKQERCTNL

The inhibition is the change of the read-out against control, counted positive when it falls. For the compound `CCCCCCC(=O)CCCCCC/C=C/C[C@@H](O)[C@H](O)[C@@](N)(CO)C(=O)O`, the results for the inhibition in assay [1] and in assay [2] were -8.15% and 1.5%, respectively.

Consider `CC1(C)CC[C@]2(C(=O)O)CC[C@]3(C)C(=CC[C@@H]4[C@@]5(C)CC[C@H](O)C(C)(C)[C@@H]5CC[C@]43C)[C@@H]2C1`, for which the inhibition in assay [1] turned out to be 10.2%; in assay [2], 0.92%.

As for `O=c1oc2ccccc2c(O)c1Cc1c(O)c2ccccc2oc1=O`, the figures for the inhibition in assay [1] and in assay [2] were 12.3% and 5.48%, respectively.

Turning to `CO[C@H]1/C=C/O[C@@]2(C)Oc3c(C)c(O)c4c(O)c(cc(O)c4c3C2=O)NC(=O)/C(C)=C\C=C\[C@H](C)[C@H](O)[C@@H](C)[C@@H](O)[C@@H](C)[C@H](OC(C)=O)[C@@H]1C`, the inhibition in assay [1] is -6.18%; in assay [2], -3.13%.

On to `COC(=O)[C@H]1[C@H]2C[C@@H]3c4[nH]c5cc(OC)ccc5c4CCN3C[C@H]2C[C@@H](OC(=O)c2cc(OC)c(OC)c(OC)c2)[C@@H]1OC`, for which the inhibition in assay [1] turned out to be 5.06%; in assay [2], 15.3%.

On to `COc1cc(CNC(=O)CCCC/C=C/C(C)C)ccc1O`, for which the inhibition in assay [1] is -6.53%; in assay [2] it was 6.29%.

Regarding `OC[C@H]1O[C@@H](O[C@@H]2OC=C[C@H]3[C@H](O)[C@@H]4O[C@]4(CO)[C@@H]23)[C@H](O)[C@@H](O)[C@@H]1O`, the inhibition was 11.3% in assay [1] and -5.36% in assay [2].

As for `C[N+]1([O-])[C@@H]2C[C@H](OC(=O)[C@H](CO)c3ccccc3)C[C@@H]1[C@H]1O[C@H]12` (some centres undefined), the inhibition in assay [1] was -6.51%; in assay [2], -1.85%.

Consider `COc1ccc(-c2oc3cc(O)cc(O)c3c(=O)c2O)cc1O`, for which the inhibition worked out at 25.9% in assay [1] and 3.18% in assay [2].

With `C[C@H]1CCC[C@@H](O)CCCCCc2cc(O)cc(O)c2C(=O)O1`, the inhibition was -1.34% in assay [1] and -4.26% in assay [2].

`CC[C@H]1CN2CCc3cc(OC)c(OC)cc3[C@@H]2C[C@@H]1C[C@H]1NCCc2cc(OC)c(OC)cc21`: the inhibition in assay [1] is 13.7%; in assay [2] it was 1.38%.

On to `CC(C)[C@@H]1NC(=O)[C@H](C)OC(=O)[C@@H](C(C)C)NC(=O)[C@@H](C(C)C)OC(=O)[C@H](C(C)C)NC(=O)[C@H](C)OC(=O)[C@@H](C(C)C)NC(=O)[C@@H](C(C)C)OC(=O)[C@H](C(C)C)NC(=O)[C@H](C)OC(=O)[C@@H](C(C)C)NC(=O)[C@@H](C(C)C)OC1=O`, for which the inhibition was 16.6% in assay [1] and -1.5% in assay [2].

In the case of `COC1=C[C@@H]2[C@@H]3Cc4ccc(OC)c(O)c4[C@]2(CCN3C)CC1=O`, the inhibition in assay [1] was determined as 4.63%; in assay [2], 5.14%.

Take `O=c1c(O)c(-c2ccc(O)c(O)c2)oc2cc(O)cc(O)c12`: the values for the inhibition in assay [1] and in assay [2] were 18.1% and 6.73%, respectively.

On to `COc1c2c(cc3c1OCO3)CCN(C)C2`, for which the inhibition in assay [1] stood at 9.58%; in assay [2] it was 29.9%.

As to `C[C@@H]1CC[C@H]2[C@](C)(CO)[C@@H](O)CC[C@]2(C)[C@@]12CC[C@@](CO)(CCO)O2`, the inhibition was -4.53% in assay [1] and 6.75% in assay [2].

`CC1=C(/C=C/C(C)=C/C=C/C(C)=C/C(=O)O)C(C)(C)CCC1`: the inhibition in assay [1] was 9.3%; in assay [2] it was -0.7%.

For the compound `CC(C)[C@@]1(O)[C@@H](OC(=O)c2cc[nH]c2)[C@@]2(O)[C@]3(C)C[C@@]4(O)O[C@@]5([C@H](O)[C@@H](C)CC[C@]35O)[C@@]2(O)[C@@]41C`, the figures for the inhibition in assay [1] and in assay [2] were 21.7% and -2.13%, respectively.

With `CC1=CC(=O)c2ccccc2C1=O`, the inhibition in assay [1] is 17.8%; in assay [2] it was -1.75%.

As for `O=c1oc2c(O)c(O)cc3c(=O)oc4c(O)c(O)cc1c4c23`, the values for the inhibition in assay [1] and in assay [2] were -6.13% and 4.4%, respectively.

As for `CN1CCC[C@H]1c1cccnc1`, the inhibition in assay [1] was 15.6%; in assay [2], 1.2%.

In the case of `C/C=C(/C)C(=O)O[C@H]1C[C@@]2(C)O[C@H]2[C@@H](O)[C@@]2(C)CC[C@@](O)(C(C)C)[C@H]12`, the inhibition in assay [1] is 17.2%; in assay [2] it was -1.91%.

As to `C/C=C/C/C=C/CCC(=O)[C@H]1O[C@H]1C(N)=O`, the inhibition in assay [1] was -4.02%; in assay [2], 3.38%.

Regarding `COc1cc2ccc(=O)oc2cc1O`, the inhibition in assay [1] was 4.78%; in assay [2] it was 0.6%.

`CC1=NCCc2c1[nH]c1cc(O)ccc21`: the inhibition in assay [1] came to 41.8%; in assay [2], 34.5%.

Consider `O=C1C[C@@H](c2ccccc2)Oc2cc(O)cc(O)c21`, for which the inhibition in assay [1] was 27.3%; in assay [2], 1.45%.

`Cc1cc(O)c2c(=O)c3c(O)cc(O)c4c5c(O)cc(O)c6c(=O)c7c(O)cc(C)c8c1c2c(c34)c(c78)c65`: the inhibition in assay [1] is -7.15%; in assay [2], 14.3%.

For the compound `CCn1cc(C(=O)O)c(=O)c2ccc(C)nc21`, the inhibition was 0.82% in assay [1] and -8.73% in assay [2].

In the case of `COc1ccc(-c2cc(=O)c3c(O)cc(O)cc3o2)cc1`, the inhibition was -1.38% in assay [1] and -2.17% in assay [2].

`C[C@@H]1O[C@@H](OC[C@H]2O[C@@H](Oc3cc(O)c4c(=O)cc(-c5ccc(O)cc5)oc4c3)[C@H](O)[C@@H](O)[C@@H]2O)[C@H](O)[C@H](O)[C@H]1O`: the inhibition in assay [1] was 23%; in assay [2], -5.05%.

`O=C(/C=C/c1ccc(O)c(O)c1)c1ccc(O[C@@H]2O[C@H](CO)[C@@H](O)[C@H](O)[C@H]2O)c(O)c1O`: the inhibition in assay [1] is 22.2%; in assay [2] it was 2.03%.

On to `COc1cc2c(c(OC)c1OC)-c1c(cc3c(c1OC)OCO3)C[C@H](C)[C@H](C)C2`, for which the inhibition is -4.27% in assay [1] and 12.7% in assay [2].

As for `CC(C)(S)[C@H](N)C(=O)O`, the figures for the inhibition in assay [1] and in assay [2] were 11.7% and -6.36%, respectively.

As for `COc1ccc2c(c1OC)C(=O)O[C@H]2[C@@H]1c2cc3c(cc2CCN1C)OCO3`, the inhibition in assay [1] was 9.75%; in assay [2], -1.4%.

For the compound `CCN1C[C@]2(OC(=O)c3ccccc3NC(C)=O)CC[C@H](OC)[C@@]34[C@@H]2C[C@@H]([C@@H]13)[C@@]1(O)C[C@H](OC)[C@H]2C[C@@H]4[C@]1(O)[C@H]2OC`, the inhibition in assay [1] is 1.48%; in assay [2] it was -7.41%.

Consider `C[C@H]1CC[C@@H]2[C@@H](C)[C@H]3[C@H](C[C@H]4[C@@H]5CC[C@H]6C[C@@H](O)CC[C@]6(C)[C@H]5CC[C@]34C)N2C1`, for which the inhibition in assay [1] was found to be 5.43%; in assay [2], 41.9%.

With `CC[C@H](C)/C=C(C)/C=C/C1=CC2=C(Cl)C(=O)[C@](C)(OC(C)=O)C(=O)C2=CO1`, the inhibition stood at 3.54% in assay [1] and 6.21% in assay [2].

As to `CO[C@H](C)[C@](O)(C(=O)OCC1=CCN2CC[C@H](O)[C@@H]12)C(C)C`, the inhibition is 21.3% in assay [1] and 1.48% in assay [2].

Regarding `C[C@H]([C@H](O)CCC(C)(C)O)[C@H]1CC[C@@]2(O)C3=CC(=O)[C@@H]4C[C@@H](O)[C@@H](O)C[C@]4(C)[C@H]3CC[C@]12C`, the inhibition is -0.57% in assay [1] and -1.9% in assay [2].

As to `N[C@@H](Cn1oc(=O)[nH]c1=O)C(=O)O`, the inhibition in assay [1] stood at 23.1%; in assay [2] it was 2.65%.

For `C/C=C(\C)C(=O)O[C@H]1CC(C)=CC(=O)[C@@]2(C)CC[C@@](O)(C(C)C)[C@H]12`, the results for the inhibition in assay [1] and in assay [2] were 16.6% and -1.66%, respectively.

Turning to `COc1ccc(-c2cc(=O)c3c(OC)c(OC)c(OC)cc3o2)cc1OC`, the results for the inhibition in assay [1] and in assay [2] were 29.6% and 17.1%, respectively.

In the case of `O=[N+]([O-])c1ncc[nH]1`, the values for the inhibition in assay [1] and in assay [2] were 4.77% and 14.4%, respectively.

As for `CCCCCCCCCCCCCC[C@@H](O)[C@@H](O)[C@H](CO)NC(C)=O`, the results for the inhibition in assay [1] and in assay [2] were 0.15% and 3.97%, respectively.

In the case of `COc1cc(O)c2c(=O)c(O)c(-c3ccc(O)c(O)c3)oc2c1`, the inhibition in assay [1] is 23.7%; in assay [2], 3.5%.

For the compound `C=C[C@H]1CN2CC[C@H]1C[C@@H]2[C@@H](O)c1ccnc2ccccc12`, the values for the inhibition in assay [1] and in assay [2] were 5.94% and 9.07%, respectively.

Consider `O=C(/C=C/c1ccc(O)c(O)c1)O[C@H](Cc1ccc(O)c(O)c1)C(=O)O`, for which the inhibition in assay [1] is 14.9%; in assay [2], -3.64%.

As to `CC(C)[C@H]1C(=O)O[C@@H]2CCN3CC=C(COC(=O)[C@](C)(O)[C@]1(C)O)[C@H]23`, the inhibition in assay [1] turned out to be 24.2%; in assay [2] it was 3.04%.

As to `CN1CCc2cc3c(cc2C(=O)Cc2ccc4c(c2C1)OCO4)OCO3`, the values for the inhibition in assay [1] and in assay [2] were 31.1% and 7.56%, respectively.

For the compound `C[n+]1cc2c3c(ccc2c2ccc4cc5c(cc4c21)OCO5)OCO3`, the inhibition in assay [1] came to 27%; in assay [2], 1.3%.

As to `CO[C@@H]1[C@H](O)C[C@@H](O[C@@H]2C[C@H](Oc3cc4cc5c(c(O)c4c(O)c3C)C(=O)[C@@H](O[C@H]3C[C@@H](O[C@H]4C[C@@H](O[C@H]6C[C@](C)(O)[C@@H](OC(C)=O)[C@H](C)O6)[C@H](O)[C@@H](C)O4)[C@H](O)[C@@H](C)O3)[C@H]([C@H](OC)C(=O)[C@@H](O)[C@@H](C)O)C5)O[C@H](C)[C@@H]2OC(C)=O)O[C@@H]1C`, the inhibition stood at 5.47% in assay [1] and 3.95% in assay [2].

Consider `c1ccc2c(c1)[nH]c1cnccc12`, for which the inhibition in assay [1] was -1.66%; in assay [2] it was 28.7%.

Regarding `COC1=CC(=O)O[C@@H](CCc2ccc3c(c2)OCO3)C1`, the inhibition in assay [1] was 24.8%; in assay [2] it was 3.66%.

Turning to `COc1c2occc2cc2ccc(=O)oc12`, the results for the inhibition in assay [1] and in assay [2] were 4.4% and 8.34%, respectively.

Turning to `COc1cccc2oc(-c3ccccc3)cc(=O)c12`, the inhibition in assay [1] was 37.5%; in assay [2], 18.3%.

Regarding `C[C@@H]1[C@H](O)[C@@H](C)/C=C/C=C/C=C/C=C/C=C/C=C/C=C/[C@H](O[C@@H]2O[C@H](C)[C@@H](O)[C@H](N)[C@@H]2O)C[C@@H]2O[C@](O)(C[C@@H](O)C[C@@H](O)[C@H](O)CC[C@@H](O)C[C@@H](O)CC(=O)O[C@H]1C)C[C@H](O)[C@H]2C(=O)O`, the results for the inhibition in assay [1] and in assay [2] were 8.91% and 11.9%, respectively.

As to `C=C1C(=O)O[C@@H]2C3O[C@]3(C)CC/C=C(\C)CC[C@@H]12` (some centres undefined), the inhibition was -5.29% in assay [1] and 14% in assay [2].
